Experimental data reported in patent publication US11066409B2, “Bicyclic nitrogen-containing heterocyclic derivatives and pharmaceutical composition comprising the same” (Shionogi & Co., Ltd., priority 2016, dated 2021).

What was measured:
human P2X7 receptor = human P2X7 receptor (Homo sapiens (Human), UniProt Q99572, R270H); test: Evaluation of a human P2X7 receptor inhibitory activity (Yo-Pro uptake, BzATP stimulation, FLIPR TETRA); assay type: cell-based; settings: 1321N1 cells stably expressing human P2X7 receptor, Yo-Pro fluorescence
How it was run: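 1321N1 cells stably expressing human P2X7 (T606C/G952A SNP variant) in HBSS/HEPES pH 7.4–7.5 were loaded with Yo-Pro and stimulated with BzATP on FLIPR TETRA. Compound was added 8 min later and fluorescence followed for 20 min. Inhibition scaled between no-compound (0%) and reference compound (100%); IC50 by logistic fit, reported in bins A–D.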

[1] = test system: partial sciatic nerve ligation model in rats; test: Analgesic effect in a Seltzer model (partial sciatic nerve ligation), mechanical allodynia by von Frey filaments; assay type: in vivo; settings: 1 h, rat, oral, reversal of mechanical allodynia, approximately 1 to 5 hours after administration
Source text: Preparation of Partial Sciatic Nerve Ligation Model in Rats
Rats were anaesthetized using isoflurane/O2 inhalation anaesthesia. After induction of anesthesia, the left thigh was shaved. An incision was made in the skin just below the hip bone. The muscle was bluntly dissected to expose the sciatic nerve. About one half (½) of the sciatic nerve thickness was tightly ligated with a nylon thread and the wound was closed. The right thigh was used as a sham-operated control. The right thigh underwent an identical procedure with the left hind limb, however, the sciatic nerve was not manipulated or ligated.
Two weeks after nerve ligation, the effect on mechanical allodynia was assessed using a series of von Frey filaments. For habituation, the rats were placed into a plastic cage on a wire mesh bottom. Von Frey filaments (0.4 to 26 g) were applied to the plantar surface of the rat hind paws from the wire mesh side, and the value of the filament pressure at which the paw was withdrawn was used as a pain threshold. The measurement of mechanical sensitivity of the right and left hind paws was performed to obtain predose mechanical sensitivity. The rats showing the threshold change from 0.6 to 2 g (in nerve ligated side) and 8 to 15 g (in sham operated side) were used in the experiments. On the day before the experiment, the rats were evaluated with a series of von Frey filaments to familiarize them with the test procedure. The adopted animal was administrated with the compounds of the present invention. The compounds of the present invention were homogenized with mortar and pestle and suspended or diluted in 0.5% Methyl Cellulose to prepare 0.03-100 mg/2 mL/kg suspension and orally administered to rat using a syringe attached with a sonde. Post-dose mechanical sensitivities of the right and left hind paws were measured at approximately 1 to 5 hours after drug administration. Percent reversal of mechanical allodynia for each rat was calculated using the following formula. The analgesic effects of the compounds were compared.

human PXR = human PXR (Homo sapiens (Human), UniProt O75469); test: Evaluation of activation of human pregnane X receptor (PXR), DPX2 cells; assay type: cell-based; settings: 48 hours, emission intensity divided by fluorescence intensity; for PXR 10 μM: compound 10 μM; for PXR 50 μM: compound 50 μM
Method: A Human PXR activation (Puracyp, Inc.) kit was used for evaluation.
DPX2 cells expressing human PXR were seeded in a 96-well plate at a concentration of 40000 cells/well and cultured at 37° C. under 5% carbon dioxide for 24 hours (medium: culture medium for DPX2 cells containing 10% fetal bovine serum, antibiotics, sodium pyruvate, D-glucose, and phenol red). After culture for 24 hours, a DMSO solution of the compound of the present invention was diluted with a medium (dosing medium for DPX2 cells containing 10% fetal bovine serum, D-glucose, antibiotics, sodium pyruvate, and L-glutamine) so that the final concentration was 10 and 50 μM, and a rifampicin DMSO solution as a positive control drug was 0.2, 1, 2, and 20 μM. The medium was removed from the 96-well plate after culture for 24 hours. 100 μL of the solution of the compound of the present invention and 100 μL of the rifampicin solution prepared were added to each well, and cultured for 48 hours. The medium was removed from the 96-well plate after culture for 48 hours. 100 μL of each reaction mixture obtained by adding 5.25 μL of CellTiter-Fluor to 10.5 mL of TubeE was filled therein. The plate was set in a plate reader (PerkinElmer, Inc.) after culture for 1 hour to measure the fluorescence intensity at an interval of 0.1 seconds per well. The plate was taken out. 100 μL of a solution obtained by adding ONE-Glo Assay Substrate to ONE-Glo Assaybuffer was added to each well. After 2 minutes from the addition of the solution, the plate was set in the plate reader to measure the […] at an interval of 2 seconds per well. The PXR activity of the product of the present invention was a value obtained by dividing the emission intensity by the fluorescence intensity.

Chain of human PXR (O75469 whole entry): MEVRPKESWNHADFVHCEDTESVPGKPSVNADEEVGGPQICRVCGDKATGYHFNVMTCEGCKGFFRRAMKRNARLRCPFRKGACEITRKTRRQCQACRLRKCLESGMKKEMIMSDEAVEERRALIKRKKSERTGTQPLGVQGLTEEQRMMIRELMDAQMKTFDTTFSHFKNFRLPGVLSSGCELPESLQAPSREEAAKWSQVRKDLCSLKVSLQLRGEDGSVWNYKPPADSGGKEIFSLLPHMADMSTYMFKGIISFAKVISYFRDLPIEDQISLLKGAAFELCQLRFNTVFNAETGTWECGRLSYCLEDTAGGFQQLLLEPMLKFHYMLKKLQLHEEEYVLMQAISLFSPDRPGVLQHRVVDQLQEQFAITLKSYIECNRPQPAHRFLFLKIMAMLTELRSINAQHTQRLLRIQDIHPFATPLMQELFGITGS
Chain of human P2X7 receptor (Q99572 whole entry R270H): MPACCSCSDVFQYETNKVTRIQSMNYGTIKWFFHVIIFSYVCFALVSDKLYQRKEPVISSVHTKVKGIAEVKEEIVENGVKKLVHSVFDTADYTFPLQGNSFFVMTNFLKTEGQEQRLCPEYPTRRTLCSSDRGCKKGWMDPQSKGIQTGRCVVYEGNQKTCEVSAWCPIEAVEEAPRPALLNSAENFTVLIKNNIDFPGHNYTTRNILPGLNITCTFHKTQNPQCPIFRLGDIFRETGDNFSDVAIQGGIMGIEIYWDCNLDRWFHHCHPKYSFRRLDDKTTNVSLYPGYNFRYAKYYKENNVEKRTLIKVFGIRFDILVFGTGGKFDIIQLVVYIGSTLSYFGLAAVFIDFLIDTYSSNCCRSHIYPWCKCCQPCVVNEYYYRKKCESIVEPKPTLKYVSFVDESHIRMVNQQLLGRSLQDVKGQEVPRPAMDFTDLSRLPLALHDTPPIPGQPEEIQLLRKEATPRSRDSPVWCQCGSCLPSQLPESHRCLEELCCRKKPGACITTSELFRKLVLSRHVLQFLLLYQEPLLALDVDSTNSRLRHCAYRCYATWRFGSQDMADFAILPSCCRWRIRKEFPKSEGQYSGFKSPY

SMILES | IC50 (human P2X7 receptor) | inhibition in vivo at 1 mg/kg [1] | PXR 10 μM (human PXR) | PXR 50 μM (human PXR) | IC50 (human P2X7 receptor; class symbols) | inhibition in vivo at 3 mg/kg [1]
COc1cc(NC2=NC(=O)N(C)C3=NCC(c4cc(F)c(F)c(F)c4)N23)c(C)cc1F (stereo not shown) [Compound I-0149] | 21 nM | 41% |  |  |  | 
COc1nc(C)c(NC2=NC(=O)N(C)C3=NCC(c4cc(F)c(F)c(F)c4)N23)cc1F (stereo not shown) [Compound I-0162] | 19 nM |  | 6.7 | 20 |  | 
COCc1ccc(C)c(NC2=NC(=O)N(C)C3=NCC(c4cc(F)c(F)c(F)c4)N23)c1 (stereo not shown) [Compound I-0201] | 26 nM | 51% | 4 | 13.5 |  | 
COc1ccc(NC2=NC(=O)N(C)C3=NCC(c4cc(F)c(F)c(F)c4)N23)c(C)c1 (stereo not shown) [Compound I-0135] |  |  | 3 | 9 | 10 to 100 nM | 52%
COc1ccc(C)c(NC2=NC(=O)N(C)C3=NCC(c4cc(F)c(F)c(F)c4)N23)c1 (stereo not shown) [Compound I-0142] |  |  | 5.8 | 13 | 10 to 100 nM | 
Cc1ccc(CO)cc1NC1=NC(=O)N(C)C2=NCC(c3cc(F)c(F)c(F)c3)N12 (stereo not shown) [Compound I-0161] | 19 nM | 51% | 1.2 | 2.5 |  | 
CCc1nc(OC)ccc1NC1=NC(=O)N(C)C2=NCC(c3cc(F)c(F)c(F)c3)N12 (stereo not shown) [Compound I-0154] | 17 nM | 44% | 7.9 | 15.8 |  | 
COCCOc1ccc(C)c(NC2=NC(=O)N(C)C3=NCC(c4cc(F)c(F)c(F)c4)N23)c1 (stereo not shown) [Compound I-0158] | 27 nM | 47% | 1.2 | 4.7 |  | 
CCc1ccc(CO)cc1NC1=NC(=O)N(C)C2=NCC(c3cc(F)c(F)c(F)c3)N12 (stereo not shown) [Compound I-0176] | 20 nM |  | 1.1 | 2 |  | 
COc1ccc(NC2=NC(=O)N(C)C3=NCC(c4cc(F)c(F)c(F)c4)N23)c(C)c1F (stereo not shown) [Compound I-0147] | 24 nM | 33% |  |  | 10 to 100 nM | 
Cc1cc2c(cc1Nc1nc(=O)c(F)c3n1C(c1cc(F)cc(F)c1)CC3)COC2 (stereo not shown) [Compound I-0102] | 11 nM |  |  |  |  | 55%
Cc1cc(F)c(CO)cc1NC1=NC(=O)N(C)C2=NCC(c3cc(F)c(F)c(F)c3)N12 (stereo not shown) [Compound I-0168] |  | 53% | 0.9 | 1.7 |  | 
Cc1cc2c(cc1NC1=NC(=O)N(C)C3=NCC(c4cc(F)c(F)c(F)c4)N13)COC2 (stereo not shown) [Compound I-0164] | 28 nM | 47% | 10.6 | 25 |  | 
CN1C(=O)N=C(NCc2ccccc2)N2C1=NCC2c1cc(F)c(F)c(F)c1 (stereo not shown) [Compound I-0188] | 7.6 nM |  | 1.3 | 3.5 |  | 
Cc1ccc(OC(F)F)cc1NC1=NC(=O)N(C)C2=NCC(c3cc(F)c(F)c(F)c3)N12 (stereo not shown) [Compound I-0192] | 18 nM | 50% | 7.9 | 15 |  | 
Cc1ccc(C#N)cc1NC1=NC(=O)N(C)C2=NCC(c3cc(F)c(F)c(F)c3)N12 (stereo not shown) [Compound I-0145] | 19 nM | 58% | 1.9 | 6.2 | 10 to 100 nM | 
Cc1ccc(OCCO)cc1NC1=NC(=O)N(C)C2=NCC(c3cc(F)c(F)c(F)c3)N12 (stereo not shown) [Compound I-0171] |  | 52% | 1.2 | 2.5 |  | 
